Results from patent publication US6627632B2, “Compositions and methods for the treatment of anorectal disorders” (Cellegy Pharmaceuticals, Inc., priority 1998, dated 2003).
Counter-ions that a name gives are not always drawn.

Assays:
[1] = system: internal anal sphincter; experiment: rat internal anal sphincter (IAS) relaxation model: internal anal sphincter pressure (IASP) in anesthetized rats; type: in vivo; conditions: for potentiation with NTG, comparison of PDE V inhibitors (summary): in vivo model, i.p. PDE V inhibitor plus NTG; for relaxation of the rat IAS / reduction of IASP (summary statement in the description): rat IAS in vivo, no dose stated; for drop of IASP: subsequent dose of 1% nitroglycerin, morning after dibutyryl-cGMP
Procedure: Male Sprague-Dawley rats (300-400 gm) were anesthetized with ketamine (90 mg/kg), xylazine (9 mg/kg) given intramuscularly and supplemented as needed with ⅓^rd dose. Rats were gently restrained on their backs on a heated surgical table (Harvard Apparatus) for the duration of the experiments. The diuretic effects of anesthesia was offset by rehydration with saline through an intraperitoneal implanted 24 gauge angiocatheter (VWR, San Francisco, Calif.). The constriction/relaxation measurement assembly included a Millar catheter/transducer (1.67 mm diameter.) connected to a Digi-Med Low Pressure Analyzer (Micro-Med) accurate for pressure measurements between −50 and 150 mmHg. The data were integrated and converted to waveforms with the Digi-Med System Integrator software. Blood pressure changes were monitored using an arterial catheter/transducer and a Digi-Med Blood Pressure Analyzer with the DMSI software. Respiratory changes were monitored using a mercury strain gauge/transducer, wrapped around the rib-cage of the rat, hooked up to a Digi-Med Analog Signal Analyzer along with the DMSI software. Drug delivery was accomplished through two Hamilton syringes with no dead space using PE 10 tubing adjacent to the catheter sensor.
In this example, male Sprague-Dawley rats (250-300 g each) from Charles River were used. The rats were anesthetized intramuscularly with ketamine (90 mg/kg) and xylazine (9 mg/kg) and kept warm on a heated surgical table. All internal anal sphincter pressures (IASP) were measured with Millar catheter/transducers (MPC-500 mikrotip; Millar Instruments, Houston) on low pressure analyzers and blood pressure analyzers and recorded by DMSI software provided by Micro-Med (Louisville). Rats were provided with saline i.p. for rehydration due to the diuretic effects of the anesthesia and re-anesthetized as needed with approximately ⅓ the original dosage. In most experiments, the IASP was allowed to reach a stable baseline level prior to drug delivery. Drugs were delivered to the anal sphincter mainly via PE 20 tubing attached to the catheter(s) near the sensor(s) from 100 μl or 250 μl Hamilton syringes either manually or by infusion with a programmable Harvard automatic infusion pump.

[2] = system: vascular smooth muscle; experiment: in vitro assay of NTG-induced increases in cGMP levels in vascular smooth muscle
Description: (§1) One issue with chronic or subchronic therapy with nitric oxide or nitric oxide donors such as NTG is the extent of any tachyphylaxis or tolerance to the relaxant effect of nitric oxide. Clinical studies have shown that the human cardiovascular system develops tolerance to nitric oxide donors. […] Thus, it seemed likely that the IAS would also develop tolerance to the effects of nitric oxide upon repeated or prolonged dosing.

[3] = system: muscle of the IAS; experiment: in vitro study of NTG-induced increases in cGMP levels in the muscle of the IAS; conditions: compared with vascular smooth muscle
[4] = cardiovascular tolerance to repeated NTG dosing, measured in vivo by mean arterial blood pressure; conditions: rat model, repeated dosing of NTG
Description: as §1

[5] = in saline, infused continuously to the IAS at 20 μg/hour
[6] = in 5% DMSO/Acetone:Olive oil 1:1, infused continuously at 20 μg/hour
[7] = 10 mg in 100 μl 1M2P i.p. 30 minutes prior to NTG bolus doses (20 μg/min every 30 minutes)
[8] = continuously infused at 20 μg/hour in 5% dextrose

SMILES: CCCC(=O)Nc1nc2c(ncn2C2OC3COP(=O)([O-])OC3C2OC(=O)CCC)c(=O)[nH]1.[Na+] (stereo not shown) [dibutyryl-cGMP, N2,2′-O-Dibutyrylguanosine-3′,5′-cyclic monophosphate, sodium salt]
- reduction of mean IASP ([1]; 20 μl of a 10% solution in saline applied to the anal canal, over 2.5 hours following treatment): 45%
- IASP still reduced ([1]; 20 μl of a 10% solution in saline, by the following morning): 34%
- drop of average IASP ([1]; 20 μl of a 10% solution in saline, over the last hour prior to terminating the experiment): 60%
- lowering of IASP ([1]; further dose after IASP returned to pre-treatment levels, over the ensuing 3 hours and 10 minutes): 15%

SMILES: CC(C)(C)NCC(O)c1cc(O)cc(O)c1 (stereo not shown) [terbutaline]
- effect on IASP [1, 5]: steady and sustained decline in IASP

SMILES: COc1cc2nc(N3CCN(C(=O)c4ccco4)CC3)nc(N)c2cc1OC [prazosin]
- time after which the drop in IASP plateaued ([1]; in 5% DMSO/Acetone:Olive oil 1:1, infused at 20 μg/hour): 1 h
- effect on IASP [1, 6]: significant and sustained drop in IASP

SMILES: NCCc1cc(O)c(O)cc1O [6-hydroxydopamine]
- course of IASP by day 19 ([1]; 200 μg bolus in saline to the IAS each day for 5 days, day 19): partial recovery in IASP
- average IASP below the original baseline pressure ([1]; 200 μg bolus in saline to the IAS each day for 5 days, day 22): 36%
- course of IASP through day 16 ([1]; 200 μg bolus in saline to the IAS each day for 5 days, through day 16, 11 days after termination of treatment): continuous drop in IASP
- period of prolonged reduction in IASP ([1]; following 5 daily topical doses of 200 μg in saline): ≥ 3 week

SMILES: OCCN(CCO)c1nc(N2CCCCC2)c2nc(N(CCO)CCO)nc(N3CCCCC3)c2n1 [Dipyridamole]
- duration of depression of IASP due to NTG relative to the vehicle-treated rat ([1]; 10 mg in 100 μl 1M2P i.p. 50 minutes prior to NTG bolus doses (20 μg/min every 30 minutes)): approximately twice
- potentiation with NTG, comparison of PDE V inhibitors (summary) [1]: less striking potentiation with NTG

SMILES: COc1ccc([C@@H]2Sc3ccccc3N(CCN(C)C)C(=O)[C@@H]2OC(C)=O)cc1 [Diltiazem]
- effect on IASP [1, 5]: dramatic and sustained drop in IASP

SMILES: O=C(O)c1ccc(C2=C3C=CC(=N3)C(c3ccc(C(=O)O)cc3)=c3ccc([nH]3)=C(c3ccc(C(=O)O)cc3)c3ccc([n-]3)C(c3ccc(C(=O)O)cc3)c3ccc2[n-]3)cc1.[Cl-].[Mn+3] (stereo not shown) [MnTBAP, Mn (III) tetrakis (4-benzoic acid) porphyrin chloride]
- NO enhancing activity ([1]; rat IASP model, superoxide scavenger with NTG): did not demonstrate significant NO enhancing activity

SMILES: CCCOc1ccccc1-c1nc2nn[nH]c2c(=O)[nH]1 [zaprinast]
- time at which duration of IASP depression by NTG peaked ([1]; 10 mg i.p. 2.75 hours prior to NTG bolus doses, time after i.p. dose): 3.5 to 4 h
- duration of IASP depression by NTG (potentiation of NTG) [1, 7]: increasing duration of IASP depression with consecutive doses of NTG
- duration of IASP depression by NTG (potentiation of NTG) ([1]; 10 mg in 100 μl 1M2P i.p. 2.75 hours prior to NTG bolus doses (20 μg/min every 30 minutes)): continued to increase with each NTG dose
- reduction of mean IASP compared with vehicle treatment alone ([1]; 20 μL of a 5% solution in 1-methyl-2-pyrrolidinone, over 32 minutes): 21%

SMILES: CC(C)Cn1c(=O)n(C)c(=O)c2[nH]cnc21 [IBMX, 3-Isobutyl-1-methylxanthine]
- effect on IASP ([1]; in 5% DMSO/Acetone:Olive oil 1:1, infused at 200 μg/hour): significant and sustained drop in IASP
- time at which the drop in IASP leveled off ([1]; in 5% DMSO/Acetone:Olive oil 1:1, infused at 200 μg/hour, after initiation of the infusion): 1 h
- effect on IASP [1, 6]: similar

SMILES: Clc1ccc2ncnc(NCc3ccc4c(c3)OCO4)c2c1 [MBCQ, 4-((3,4-(Methylenedioxy)benzyl)amino)-6-chloroquinazoline]
- potentiation of NTG [1, 7]: No noticeable potentiation of NTG
- potentiation with NTG, comparison of PDE V inhibitors (summary) [1]: did not demonstrate significant activity

SMILES: CCCC(=O)Nc1ncnc2c1ncn2[C@@H]1O[C@@H]2COP(=O)(O)O[C@H]2[C@H]1OC(=O)CCC [Dibutyryl cAMP, N6,2′-O-Dibutyryladenosine-3′,5′-cyclic monophosphate, sodium salt monohydrate]
- effect on IASP [1, 5]: minor depression in IASP
- efficacy of cAMP analogs relative to each other ([1]; rat model, aqueous-soluble analogs): more efficacious in the rat model than the 8-bromo derivative

SMILES: Nc1cc(N2CCCCC2)nc(N)[n+]1[O-] [minoxidil]
- reduction of the IASP ([1]; single 20 μl dose of a 4% solution in 62.5% propylene glycol, over 2.5 hours following treatment): 64%

SMILES: CC(C)NCC(O)c1ccc(O)c(O)c1 (stereo not shown) [isoproterenol]
- effect on IASP ([1]; 100 μl 1M2P vehicle i.p., 30 minutes later continuous infusion in saline at 0.2 μg/hour (sub-threshold dose)): no significant effect on lowering IASP
- effect on IASP ([1]; bolus dose of 200 μg to the IAS): dramatic drop in IASP

SMILES: COc1ccc(C2CNC(=O)C2)cc1OC1CCCC1 (stereo not shown) [rolipram]
- effect on IASP [1, 6]: significant drops in IASP followed by shorter recovery phases

SMILES: CCCCOc1cc(CC2CNC(=O)N2)ccc1OC (stereo not shown) [RO-20-1724, 4-(3-Butoxy-4-methoxybenzyl)-2-imidazolidinone]
- effect on IASP [1, 6]: minimal

SMILES: CC1=NS(=O)(=O)c2cc(Cl)ccc2N1 [Diazoxide]
- effect on IASP [1, 6]: dramatic drop in IASP
- relaxation of the rat IAS / reduction of IASP (summary statement in the description) [1]: relaxed the rat IAS in vivo

SMILES: Cn1c(=O)c2[nH]cnc2n(C)c1=O [Theophylline]
- effect on IASP ([1]; continuously infused at 2 μg/hour in 5% dextrose, 3 hour experiment): minimal drop in average IASP
- effect on IASP [1, 8]: moderate drop in average IASP
- effect on IASP ([1]; continuously infused at 200 μg/hour in 5% dextrose, 4 hour experiment): dramatic and sustained drop in IASP
- relaxation of the rat IAS / reduction of IASP (summary statement in the description) [1]: relaxed the rat IAS

SMILES: O=[N+]([O-])OCC(CO[N+](=O)[O-])O[N+](=O)[O-] [nitroglycerin]
- NTG-induced increases in cGMP levels [2]: attenuated dramatically
- effect on resting IASP ([1]; 0.1% NTG in 5% dextrose/water with 1% propylene glycol, bolus doses to the IAS at 20 μg/min every 30 minutes): dramatic drop in resting IASP followed by a complete recovery to resting levels
- nitrate related pressure tolerance ([1]; continuous NTG administration, 20 μg/hour, 4 hours): no nitrate related pressure tolerance was noted
- effect on resting IASP ([1]; continuous infusion of NTG at 20 μg/hour, 4 hours): steady and sustained decline in resting IASP
- duration of depression of IASP due to NTG ([1]; control: vehicle 1M2P 100 μl i.p. 30 minutes prior to NTG bolus doses (20 μg/min every 30 minutes)): constant with each dose
- duration of depression of IASP due to NTG ([1]; control: vehicle 1M2P 100 μl i.p. 50 minutes prior to NTG bolus doses (20 μg/min every 30 minutes)): constant with each dose
- duration of depression of IASP due to NTG ([1]; control: vehicle 1M2P 100 μl i.p., first NTG dose after 2.75 hours (20 μg/min every 30 minutes)): consistent with each NTG dose
- nitrate related pressure tolerance ([1]; repeated NTG bolus administration, 20 μg/min every 30 minutes): no nitrate related pressure tolerance was noted
- tachyphylaxis to the relaxant effect on the IAS ([1]; repeated or prolonged dosing in vivo): does not develop
- drop of IASP ([1]; first 10 minutes following treatment): 71%
- drop of IASP ([1]; for 30 minutes): 24%
- NTG-induced increases in cGMP levels [3]: not as attenuated as those in vascular smooth muscle
- cardiovascular tolerance (mean arterial blood pressure) [4]: develops with repeated dosing

SMILES: Cn1c(=O)c2c(ncn2CC(O)CO)n(C)c1=O (stereo not shown) [dyphylline, 7-(2,3-dihydroxypropyl) theophylline]
- effect on IASP [1, 8]: IAS relaxing effects
- relaxation of the rat IAS / reduction of IASP (summary statement in the description) [1]: reduce IASP

SMILES: CC(C)(C)NCC(O)c1ccc(O)c(CO)c1 (stereo not shown) [salbutamol]
- short-term effect on IASP ([1]; 200 μg in saline delivered to the IAS, alone): no short-term effects on the IASP
- effect on IASP [1, 5]: significant drop in IASP throughout the experiment

SMILES: COc1ccc(CCN(C)CCCC(C#N)(c2ccc(OC)c(OC)c2)C(C)C)cc1OC (stereo not shown) [Verapamil]
- effect on IASP [1, 5]: dramatic and sustained drop in IASP
